Columns and labels:
DHS = molecular target: T1, DHS (Homo sapiens, UniProt P49366); assay: in vitro hypusination reaction of recombinant eIF5A with DHS, DHH, spermidine and GC7, immunoblot read-out; format: biochemical
T1 construct: His6 (N); made in house; host or cells: E. coli
T1 sequence (P49366 1-369): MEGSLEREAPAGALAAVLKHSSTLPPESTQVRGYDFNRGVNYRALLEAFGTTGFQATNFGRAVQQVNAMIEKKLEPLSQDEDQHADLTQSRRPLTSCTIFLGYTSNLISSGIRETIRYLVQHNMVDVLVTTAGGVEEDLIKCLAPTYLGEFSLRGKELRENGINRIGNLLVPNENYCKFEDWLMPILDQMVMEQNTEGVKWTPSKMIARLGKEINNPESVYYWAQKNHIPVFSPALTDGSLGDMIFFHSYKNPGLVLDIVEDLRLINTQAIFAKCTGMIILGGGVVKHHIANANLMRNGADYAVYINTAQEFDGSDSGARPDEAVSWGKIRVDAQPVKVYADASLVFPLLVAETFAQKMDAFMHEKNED
Source text: Reactions in vitro—For in vitro experiments, eIF5A protein was purified from E. coli as a GST fusion, after which the GST tag was proteolytically removed. DHS protein was purified from E. coli as an N-terminal His6 fusion. Purified human DHH protein was purchased from OriGene. The hypusination reactions in vitro proceeded as previously published.
(§1) Antibodies and immunoblotting—The rabbit polyclonal antibody IU-88 against hypusinated human eIF5A was generated in rabbits using the synthetic hypusine-containing peptide C-Ahx-STSKTG[hypusine]HGHAKV-amide (SEQ ID NO. 1) by contract to 21st Century Biochemicals. Monoclonal mouse pan-anti-eIF5A antibody was from BD Biosciences and anti-actin antibody was from MP Biomedicals. Immunoblot analysis was visualized using a LiCor Odyssey fluorescence system following electrophoresis on a 4-20% SDS polyacrylamide gel. Primary antibodies were diluted 1:1500 (IU-88) and 1:10,000 (anti-pan-eIF5A).
In order to determine if IU-88 specifically recognizes the deoxyhypusine or hypusine forms of eIF5A, immunoblots of reactions in which recombinant human eIF5A was incubated in vitro with DHS, DHH, spermidine, and/or the potent DHS inhibitor GC7 were performed. Referring now to FIG. 1A. […] Increasing the DHS concentration and time of incubation led to increasing eIF5A signal intensity in these studies (data not shown).

293T cells = assay: GC7 treatment of transfected 293T cells, immunoblot of cell extracts; format: cell-based, human
Description: (§2) Cell culture, transfection and DHS inhibition—Human 293T and rat INS-1(832/13) β cells were cultured as described. Cells were transiently transfected with plasmids encoding EGFP-eIF5A, EGFP-eIF5A(K50A) and EGFP-DHS constructs using Lipofectamine 2000 (Invitrogen) for 16 hours before cell extraction or immunofluorescence analysis. The DHS inhibitor GC7 (Biosearch Technologies) was prepared and used in cell culture as previously described.
as §1
Referring now to FIG. 1D. When 293T cells are transfected with GFP-eIF5A, a weak but detectable signal corresponding to GFP-eIF5A is observed using IU-88 (lane 1).

INS-1 β cells = assay: GC7 treatment of transfected INS-1 cells, immunoblot of cell extracts; format: cell-based, rat; conditions: increasing GC7 concentrations, FIG. 1E
Description: as §2, §1
Referring now to FIG. 1E.

With `NCCCCCCCN=C(N)N` [GC7] as the compound, how does the “eIF5A signal intensity (IU-88 immunoblot)” value (DHS; co-incubation with 300 nM GC7, FIG. 1A lanes 3 and 6) read?
The value was “reduction in eIF5A signal intensity”.

And the “inhibition of eIF5A signal intensity (IU-88 immunoblot)” value (DHS; higher concentrations of GC7 up to 10 μM, FIG. 1B)?
Its value is “near-complete inhibition”.

What about the “GFP-eIF5A signal detected by IU-88” value (293T cells; 293T cells co-transfected with GFP-DHS, GC7, FIG. 1D lanes 5 and 6) of the same compound?
The value was “corresponding decrease in the presence of GC7”.

What about the “GFP-eIF5A signal detected by IU-88” value (293T cells; 293T cells transfected with GFP-eIF5A, increasing concentrations of GC7, FIG. 1D lanes 2 and 3) of the same compound?
The value was “signal decreases further”.

And the “endogenous eIF5A signal recognized by IU-88” value (293T cells; 293T cells, increasing GC7)?
Its value is “observed to decrease with increasing GC7”.

And the “GFP-eIF5A signal observed with IU-88” value (INS-1 β cells)?
The value was “reduces the GFP-eIF5A signal observed with IU-88”.

And the “signal observed with the pan-anti-eIF5A antibody” value (INS-1 β cells)?
Its value is “also reduces the signal observed with the pan-anti-eIF5A antibody”.

Reference: patent US20150119476A1, “DEVELOPMENT, CHARACTERIZATION, AND USE OF AN ANTI-HYPUSINATED eIF5A ANTIBODY TO DIAGNOSE DIABETES” (Indiana University Research and Technology Corp., priority 2013, published 2015)
